The record followed here is ChEMBL document CHEMBL1806363, “New substrate analogue furin inhibitors derived from 4-amidinobenzylamide” (Bioorg Med Chem Lett, 2011).

In general, Ki refers to a measure of affinity in units of concentration, obtained from inhibition or displacement.

The structures appear in SMILES notation.

For the experiment, the target named is Furin (Homo sapiens, UniProt P09958). As to the kind of experiment: Inhibition of recombinant human furin expressed in CHO cells using pyroGlu- Arg-Thr-Lys-Arg-AMC as the substrate after 30 mins. It counts as cell-based.
Sequence of Furin (P09958 whole entry): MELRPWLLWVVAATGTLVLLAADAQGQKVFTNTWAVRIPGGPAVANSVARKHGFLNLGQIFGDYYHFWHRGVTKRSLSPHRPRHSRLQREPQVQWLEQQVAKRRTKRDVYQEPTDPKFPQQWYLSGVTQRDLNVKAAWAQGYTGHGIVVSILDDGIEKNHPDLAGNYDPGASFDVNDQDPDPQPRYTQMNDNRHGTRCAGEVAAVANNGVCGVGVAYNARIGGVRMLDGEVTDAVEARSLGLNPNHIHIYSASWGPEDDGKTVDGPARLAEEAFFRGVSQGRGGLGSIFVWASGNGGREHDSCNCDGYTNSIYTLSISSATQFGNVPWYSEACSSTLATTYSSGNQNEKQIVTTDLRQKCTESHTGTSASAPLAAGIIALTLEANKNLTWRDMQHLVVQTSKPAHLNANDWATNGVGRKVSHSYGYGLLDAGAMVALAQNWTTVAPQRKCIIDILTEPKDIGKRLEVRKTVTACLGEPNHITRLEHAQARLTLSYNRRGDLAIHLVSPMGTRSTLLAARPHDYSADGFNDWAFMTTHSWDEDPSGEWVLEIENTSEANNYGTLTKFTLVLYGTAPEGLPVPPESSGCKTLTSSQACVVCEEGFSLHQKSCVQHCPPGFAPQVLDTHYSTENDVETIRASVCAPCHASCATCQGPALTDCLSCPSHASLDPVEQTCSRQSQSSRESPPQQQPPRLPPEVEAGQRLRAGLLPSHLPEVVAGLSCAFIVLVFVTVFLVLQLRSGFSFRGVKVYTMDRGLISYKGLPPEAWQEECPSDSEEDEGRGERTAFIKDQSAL

Regarding `CC(C)[C@H](NC(=O)Cc1ccccc1)C(=O)N[C@H](CCCN=C(N)N)C(=O)N[C@@H](CCCN=C(N)N)C(=O)NCc1ccc(C(=N)N)cc1`, the Ki amounted to 7.34 µM.

Consider `NC(N)=NCCC[C@H](NC(=O)[C@@H](CCCN=C(N)N)NC(=O)Cc1ccccc1)C(=O)O`, for which the Ki was 3.2 µM.

On to `CC(C)[C@H](NC(=O)[C@H](CCCN=C(N)N)NC(=O)Cc1ccccc1)C(=O)N[C@@H](CCCCN)C(=O)NCc1ccc(C(=N)N)cc1`, for which the Ki was determined as 0.0015 µM.

As to `N=C(N)c1ccc(CNC(=O)[C@H](CCCCN)NC(=O)[C@H](CN)NC(=O)[C@H](CCCN=C(N)N)NC(=O)Cc2ccccc2)cc1`, the Ki amounted to 0.0037 µM.
